These results are taken from patent US10035810B2, “5,6-dihydro-4H-benzo[b]thieno-[2,3-d]azepine derivative” (PULMOCIDE LIMITED, priority 2014, dated 2018).

Assay [1] relates to RSV A2 F-protein. The assay can be described thus: RSV F protein expression in BEAS2B bronchial epithelial cells. Type of assay: cell-based. Particulars: human respiratory syncytial virus, BEAS-2B, 72 h, read-out: RSV A2 F-protein IC50. The method, then: Assessment of RSV F Protein Expression in BEAS2B Bronchial Epithelial Cells
An early event which follows the infection of epithelial cells by RSV is the expression of RSV F-protein on the cells' surface. BEAS2B cells (SV40-immortalised human bronchial epithelial cell line) were grown in 96 well plates. Once more than 70% confluent, cells were infected with RSV A2 (#0709161v, NCPV, Public Health England, Wiltshire) at an MOI of 0.01 in clear RPMI-1640 medium (Life technologies, Paisley, UK) with 2% FBS (Life technologies, Paisley, UK), and incubated for 3 days (37° C./5% CO2).
Supernatant was aspirated and the cells were fixed with 4% formaldehyde (100 μL in PBS solution) for 20 min, washed 3 times with washing buffer (200 μL; PBS containing 0.05% Tween-20) and incubated with blocking solution (100 μL; 5% Marvel milk in PBS) for 1 hr. […] The resultant signal was determined colourimetrically (OD: 450 nm with a reference wavelength of 655 nm) in a microplate reader (Multiskan FC®, ThermoFisher Scientific). […] After washing with PBS (200 μL) three times, 1% SDS (100 μL) was added to each well, and plates were shaken lightly for 1 hr prior to reading the absorbance at 595 nm. The measured OD450-655 readings were corrected for cell number by dividing the OD450-655 by the OD595 readings. […]

Assay [2] deals with hRSV/A/Long. The assay can be described thus: RSV infection in cotton rats: virus titre in lung homogenate (plaque assay). It counts as in vivo, cotton rats (Sigmodon hispidus).
Assay [3] concerns RANTES gene transcript. Kind of assay: RSV infection in cotton rats: RANTES gene transcript in lung (qRT-PCR). Particulars: for RANTES gene transcript % inhibition / RANTES gene transcript (/β-actin), Median: cotton rats, lung, intranasal. Type of assay: in vivo, cotton rats (Sigmodon hispidus). How it is done: RSV Infection in Cotton Rats
Male Sigmodon hispidus cotton rats between 6 and 8 weeks of age were infected with hRSV/A/Long (ATCC, Manassas, Va.; 10^5 pfu) in a volume of 0.1 mL of sucrose stabilizing media. Compound (I) was dissolved in 100% DMSO (at 3.3, 10, 33 and 100 mg/mL), then diluted at 1:10 in isotonic saline to achieve 10% DMSO in all treatments. Formulations were then sonicated to produce suspensions. The resulting suspensions were administered intranasally (50 μL) by pipette 4 hr before infection (on day 0), and then on days 1, 2 and 3 post infection. Four days after RSV challenge, the animals were euthanised and the lungs were removed. The left lobe was used for viral titration via plaque assay and the lingular lobe for RSV/A/Long NS-1 qRT-PCR and cytokine qRT-PCR.
Total RNA was also extracted from homogenized lung tissue (RNeasy purification kit; Qiagen) and a sample (1 μg) was used to prepare cDNA using QuantiTect Reverse Transcription Kit (Qiagen). For real-time PCR reactions (RSV NS-1 and RANTES genes) the QuantiFast SYBR® Green PCR Kit (Qiagen) was used in a final volume of 25 μL, with final primer concentrations of 0.5 μM. Amplifications were performed on a Bio-Rad iCycler for 1 cycle of 95° C. for 3 min, followed by 40 cycles of 95° C. for 10 sec, 60° C. for 10 sec, and 72° C. for 15 sec. Baseline cycles and cycle threshold (Ct) were calculated by the iQ5 software in the PCR Base Line Subtracted Curve Fit mode. The standard curves were developed using serially diluted cDNA sample most enriched in the transcript of interest (e.g., lungs from day 4 post-primary RSV infection). The Ct values were plotted against login cDNA dilution factor. These curves were used to convert the Ct values obtained for different samples to relative expression units which were then normalized to the level of β-actin mRNA (“housekeeping gene”) expressed in the corresponding sample. The mRNA levels were expressed as the geometric mean±SEM for all animals in a group.

As for `Cc1cnc(N2CC3(CCOCC3)C2)c(C(=O)Nc2ccc(C(=O)N3CCc4cc(C(=O)Nc5c(C)cccc5F)sc4-c4ccccc43)cc2)c1` [Compound (I), N-(2-fluoro-6-methylphenyl)-6-(4-(5-methyl-2-(7-oxa-2-azaspiro[3.5]nonan-2-yl)nicotinamido)benzoyl)-5,6-dihydro-4H-benzo[b]thieno[2,3-d]azepine-2-carboxamide], the IC50 in assay [1] was determined as 0.17 nM. For the same compound, in assay [2] (RSV A2 infected cotton rats), the “Virus titre in the lungs (in words)” value is on record as “completely inhibited virus titre”. The “Virus titre in lung homogenates (in words)” value in assay [2] (infected cotton rats, day 4) is listed as “potent dose-dependent inhibition of virus titre”. For the same compound, the “RANTES gene transcript % inhibition” value was found to be 28% in assay [3] (0.33 mg/mL), 45% in assay [3] (1.0 mg/mL), 62% in assay [3] (3.3 mg/mL) and 55% in assay [3] (10 mg/mL). Besides, the “RANTES gene transcript (/β-actin), Median” value in assay [3] (0.33 mg/mL) was 0.21 /β-actin; in assay [3] (1.0 mg/mL), 0.16 /β-actin; in assay [3] (3.3 mg/mL) it was 0.11 /β-actin; in assay [3] (10 mg/mL), 0.13 /β-actin. The “RANTES transcripts in lung (in words)” value in assay [3] (infected cotton rats) is listed as “dose-dependent inhibition”.

For orientation: IC50 means the concentration that gives 50% inhibition.
